Molecules are shown by their SMILES.

Data set [1] is described as follows: Binding of drug in solution to pharmaceutical excipients.
Data set [2] relates to moderate to severe pain following dental surgery. In words: Dose ranging clinical study of morphine 30, 60, 90 mg alone or with NTX 0.1 mg. It counts as in vivo, human. As to conditions: 30 mg, 60 mg and 90 mg MS alone compared with each other.
Procedure: In this dose ranging study, doses of morphine sulfate (30 mg, 60 mg, and 90 mg) in combination with naltrexone hydrochloride (0.1 mg) were administered for moderate to severe pain in male patients following dental surgery. This study was performed to investigate the efficacy of combinations of different doses of morphine with naltrexone 0.1 mg, relative to placebo and relative to morphine alone, to evaluate the dose-response effects of morphine when administered alone and when coadministered with naltrexone 0.1 mg, and to examine the consistency of effect of naltrexone 0.1 mg across different doses of morphine, when coadministered with morphine.
The 210 subject study was designed with seven treatment groups: A) placebo (30 pts); B) morphine 30 mg (30 pts); C) morphine 60 mg (30 pts); D) morphine 90 mg (30 pts); E) morphine 30 mg and naltrexone 0.1 mg (30 pts); F) morphine 60 mg and naltrexone 0.1 mg (30 pts); G) morphine 90 mg and naltrexone 0.1 mg (30 pts). In this study, in the treatment of moderate to severe pain following extraction of 3 or 4 full or partial bony impacted third molars, a single oral dose of one of the treatments was administered when the patient was suffering moderate to severe postoperative pain. The observation period for efficacy was 8 hours post treatment and for safety was 24 hours post treatment. […]
The subject of another data set is postsurgical patients. As to conditions: PCA/IV morphine with low dose IV antagonist; cited from earlier work.
The subject of data set [3] is excitatory opioid receptors. As to conditions: mice, antagonist on the order of ng/kg with morphine or similar opioid agonists; cited from earlier work.
The subject of data set [4] is moderate to severe pain following dental surgery. In words: Dose ranging clinical study of morphine 60 mg with NTX 0.1, 0.01 or 0.001 mg, and NTX alone. It counts as in vivo, human. As to conditions: NTX 0.01 mg alone, among treatment groups. How it is done: In a dose ranging study, doses of morphine sulfate (60 mg) in combination with naltrexone hydrochloride (0.1 mg, 0.01 mg, or 0.001 mg) were administered for moderate to severe pain in patients following dental surgery. This study was performed to investigate the analgesic efficacy (onset, peak, duration, and total effect) of morphine alone, naltrexone alone, three different doses of naltrexone in combination with morphine and placebo.
The 300 subject study was designed with six treatment groups: A) placebo (50 pts); B) morphine 60 mg (50 pts); C) naltrexone 0.01 mg (50 pts); D) morphine 60 mg and naltrexone 0.1 mg (50 pts); E) morphine 60 mg and naltrexone 0.01 mg (50 pts); F) morphine 60 mg and naltrexone 0.001 mg (50 pts). In this study, in the treatment of moderate to severe pain following extraction of 3 or 4 full or partial bony impacted third molars, a single oral dose of one of the treatments was administered when the patient was suffering moderate to severe postoperative pain. The observation period for efficacy was 8 hours post treatment, and for safety was 24 hours post treatment.
The efficacy and safety evaluations included pain intensity, pain relief, global pain evaluation, evaluation of time to meaningful pain relief (stopwatch), visual analog scale (VAS), and adverse event assessments. For the data analysis, certain pain parameters were computed as generally described above.

Setting [5] is: excipients of Example 10, aqueous environment.
[6] abbreviates: excipients of Example 12, aqueous environment.

`CN1CC[C@]23c4c5ccc(O)c4O[C@H]2[C@@H](O)C=C[C@H]3[C@H]1C5.O=S(=O)(O)O` [MS, morphine sulfate]: in data set [1] (croscarmellose sodium), the “binding to croscarmellose sodium” value is recorded as “also bound to this excipient”. For the same molecule, the “binding by the excipients used” value in data set [1] (setting [5]) was “not to bind”. In data set [1] (setting [6]), the “binding by the excipients used” value is “not to bind”. In addition, in data set [2], the “mean SPID scores” value was “comparable” and the “mean Total Pain Relief scores” value is “comparable”.
With `C=C1CC[C@@]2(O)[C@H]3Cc4ccc(O)c5c4[C@@]2(CCN3CC2CC2)[C@H]1O5` [nalmefene, 6-methylene-6-desoxy-N-cyclopropyl-methyl-14-hydroxydihydroxy-dihydronormorphine], the “effect on potency of morphine” value with postsurgical patients is on record as “markedly enhanced potency of morphine”.
Turning to `C=CCN1CC[C@]23c4c5ccc(O)c4O[C@H]2C(=O)CC[C@@]3(O)[C@H]1C5` [naloxone, 4,5-epoxy-3,14-dihydroxy-17-(2-prophenyl)morphinan-6-one], the “effect on potency of morphine” value in the data set with postsurgical patients was “markedly enhanced potency of morphine”.
For `Cl.O=C1CC[C@@]2(O)[C@H]3Cc4ccc(O)c5c4[C@@]2(CCN3CC2CC2)[C@H]1O5` [naltrexone hydrochloride, 17-cyclopropylmethyl-4,5α-epoxy-3,14-dihydroxymorphinan-6-one hydrochloride], in data set [1] (drug in solution mixed with croscarmellose sodium in suspension), the “fraction of drug bound by croscarmellose sodium” value is on record as “more than 90%”. The “binding by the excipients used” value in data set [1] (setting [5]) is recorded as “not to bind”. The “binding by the excipients used” value in data set [1] (setting [6]) is given as “not to bind”. Moreover, in data set [3], the “effect on analgesic potency of opioid agonists” value is given as “markedly enhancing the analgesic potency of opioid agonists”. For the same molecule, in data set [4], the global evaluation scores result is on record as “highest number of subjects who had “poor” global evaluation scores”, the “mean 4 hour Sum of Pain Intensity Difference (SPID) scores” value was “lowest” and the “mean Total Pain Relief scores” value was “lowest”.

Values taken from US20030191147A1, “Opioid antagonist compositions and dosage forms” (priority 2002, published 2003).
